Data taken from patent US20190242874A1, “HUMAN EPITHELIAL CELL LINE FOR 3-D MODELIZING OF CANCER AND TREATMENT THEREOF” (GALDERMA RESEARCH & DEVELOPMENT, priority 2011, published 2019).

Key:
[1] = system: KNBCCS6 E6/E7 immortalized keratinocytes; assay: Organotypic skin reconstruction: epidermal invasion of KNBCCS6 E6/E7 keratinocytes into dermal equivalent of NBCCS6 fibroblasts (histology); assay type: cell-based, human; conditions: 10 mM inhibitor, 0.1% DMSO, added 24 hrs before raising at air-liquid interface; compared with FIG. 4A control (FIG. 4B, 4C)
Protocol: Organotypic skin reconstruction using KNBCCS E6/E7 was performed using standard protocols as described in (Bernerd et al., 2001). In brief 10^6 NBCCS6 primary fibroblasts cultured in standard culture medium as described above were embeded in a bovine collagen I lattice. After contraction (48 hrs) lattices were fixed on platic using a collagen glue, KNBCCS6 were then seeded (50 000 cells per lattice) within a stainless ring, left for 6 days in immersion; the day 6) before emersion (day 7), mounts were treated with appropriate concentration of SHH:PTCH pathway inhibitor with a final a 0.1% DMSO concentration until the end of experiment. Control cultures were treated with 0.1% DMSO. After 7 days of emersion at air-liquid interface, cultures were harvested for subsequent analyses including histology and assessment of tacer/reporter gene activity. (FIG. 3 and FIG. 4)
FIGS. 4B, 4C show the same as FIG. 4A, except that organotypic skin cultures were grown 24 hrs before being raised at air-liquid interface in the presence ce of […] of GDC-0449 (B) or […] (SANT1) SHH/PTCH pathway inhibitors.

[2] = system: SHH/PTCH signaling pathway; assay: Response of the immortalized keratinocyte cell line to SHH/PTCH pathway agonist and antagonists; assay type: cell-based, human; conditions: conclusion statement; no concentration given
Protocol: Purmorphamine (SMO agonist) and GDC-0449 (SMO antagonist) were diluted in DMSO at stock concentrations of 50 mM and 10 mM, respectively. To avoid side effects and toxicity, the final concentration of DMSO was fixed to 0.1% DMSO.
Theses cells can be expanded in a simple defined medium and they can grow easily due to immortalization. This tool is 3D organotypic culture system to evaluate the efficacy of anti-tumoral molecules specifically targeting inappropriate activation of the SHH/PTCH pathway occurring in BCC but also in numerous non BCC cancers including other cancer implicating inappropriate activation of the SHH/PTCH pathway. Assessment of inhibitor efficacy is applicable in the long term by skin regeration in vivo using animal vector including the mouse or the mini pig sytems.

Compound	size and frequency of epidermal invasion [1]	effect on SHH/PTCH signaling pathway in immortalized human keratinocyte cell line [2]
CS(=O)(=O)c1ccc(C(=O)Nc2ccc(Cl)c(-c3ccccn3)c2)c(Cl)c1 [GDC-0449]	substantially decreased	inhibition of the activation
Cc1nn(-c2ccccc2)c(C)c1/C=N/N1CCN(Cc2ccccc2)CC1 [SANT1]	substantially decreased	inhibition of the activation
c1ccc2c(Oc3nc(Nc4ccc(N5CCOCC5)cc4)c4ncn(C5CCCCC5)c4n3)cccc2c1 [purmorphamine, Purmorphamine]	–	activation
